The test system of test [1] is cancer cells. The test can be described thus: MTT anti-proliferative test of des-NO-releasing compounds. The test is classed as cell-based, human. Conditions: at concentrations as high as 50 µM. Here is the method:
(§1) In addition, the morphological changes in 12b-treated cancer cell lines at concentrations of 6.25 and 12.50 µM are shown in Figure 6.
(§2) According to the procedures of Skehan et al. (with minor modifications), the cancer or normal cells were seeded in a 96-well plate (100 µL/well). After overnight incubation at 37 °C and 5% CO2, the cells were incubated with 50 µM of each tested compound or DMSO (0.5% v/v). After 48 h of incubation, MTT (3-(4,5-dimethylthiazoyl)-2,5-diphenyl-tetrazolium bromide) 5 mg/mL Phosphate-Buffered Saline (PBS) was added, and the plate was incubated for 4 h. After that, acidified sodium dodecyl sulfate (SDS) solution (10% SDS containing 0.01N HCl in 1× PBS) was used to solubilize formazan crystals. The absorbance was measured after 14 h of incubation at λ570–630 nm by a Biotek plate reader (Gen5™).

The test system of test [2] is MDA-MB-231. The test can be described thus: MTT cell viability assay. Type of test: cell-based. Conditions: Homo sapiens, Breast, 48 h, ± SD of triplicates. Here is the method:
as §1, §2
Background: Formazan colour is commonly taken as a measure of viable cells.

Test [3] has as its system A2780. Kind of test: MTT cell viability assay. Type of test: cell-based. Conditions: Homo sapiens, Ovarian, 48 h, ± SD of triplicates. Here is the method:
as §1, §2

Test [4] has as its system MCF-7. The test can be described thus: MTT cell viability assay. Type of test: cell-based. Conditions: Homo sapiens, MCF7, Breast, 48 h, ± SD of triplicates. The procedure: as §1, §2
The subject of test [5] is SKOV-3. The test can be described thus: MTT cell viability assay. The test is classed as cell-based. Conditions: Homo sapiens, SK-OV-3, Ovarian, 48 h, ± SD of triplicates. The procedure:
as §1, §2

Test [6] relates to HepG2. The test can be described thus: MTT cell viability assay. Type of test: cell-based. Conditions: Homo sapiens, Liver, 48 h, ± SD of triplicates. Here is the method: as §1, §2
Test [7] deals with A2780CP. The test can be described thus: MTT cell viability assay. Type of test: cell-based. Conditions: Homo sapiens, A2780C/P, Ovarian, 48 h, ± SD of triplicates. Here is the method: as §1, §2
The subject of test [8] is HT-29. Kind of test: MTT cell viability assay. Conditions: Homo sapiens, Colon, 48 h, ± SD of triplicates. Type of test: cell-based. Here is the method: as §1, §2

As to `Nc1ccc(Nc2nc(C(F)(F)F)nc3c2cnn3-c2ccc(Br)cc2)cc1` [15a, N1-(1-(4-bromophenyl)-6-(trifluoromethyl)-1H-pyrazolo[3,4-d]pyrimidin-4-yl)benzene-1,4-diamine], the “inhibition of the proliferation of cancer cells” value in test [1] is “did not inhibit the proliferation of cancer cells”.

`Cc1nn(-c2ccc(Br)cc2)c2nc(C(F)(F)F)nc(Nc3ccc(N)cc3)c12` [15b, N1-(1-(4-bromophenyl)-3-methyl-6-(trifluoromethyl)-1H-pyrazolo[3,4-d]pyrimidin-4-yl)benzene-1,4-diamine]: the “inhibition of the proliferation of cancer cells” value in test [1] is recorded as “did not inhibit the proliferation of cancer cells”.

For orientation: IC50 means the midpoint of a concentration-inhibition curve. Regarding `CNC(=O)c1cc(Oc2ccc(NC(=O)Nc3ccc(Cl)c(C(F)(F)F)c3)cc2)ccn1` [Sorafenib, sorafenib, reference compound], the IC50 stood at 16.6 ± 0.3 µM in test [2]; 10.5 ± 0.5 µM in test [3]; 5.1 ± 0.4 µM in test [4]; 16.9 ± 0.2 µM in test [5]; 14 ± 0.4 µM in test [6]; 15.2 ± 0.1 µM in test [7]. Besides, in test [8], the IC50 was 11 ± 0.2 µM.
